Reference: patent US10308916B2, “Omega-transaminase mutants with activity improvements toward ketones and methods for producing optically pure amines” (Industry-Academic Cooperation Foundation, Yonsei University, priority 2015, dated 2019)

Legend:
Type in all cases: biochemical
OATA W58L [1] = test system: OATA W58L
OATA W58A [2] = test system: OATA W58A
OATA W58A [3] = details: pH 7
OATA L57C/W58L/I261A = test system: OATA L57C/W58L/I261A
OATA W58L [4] = test system: OATA W58L; remark: listed apart in the source
OATA W58L [5] = details: pH 7
OATA W58V = details: pH 7
OATA W58I = details: pH 7
OATA W58M = details: pH 7

| Compound | Relative reactivity, OATA W58L (OATA W58L [1]) | Relative reactivity, OATA W58A (OATA W58A [2]) | Relative activity to acetophenone, OATA W58A (OATA W58A [3]) | Relative activity, OATA L57C/W58L/I261A (OATA L57C/W58L/I261A) | Conversion (%) OATAW58L (OATA W58L [4]) | Relative activity to acetophenone, OATA W58L (OATA W58L [5]) | Relative activity to acetophenone, OATA W58V (OATA W58V) | Relative activity to acetophenone, OATA W58I (OATA W58I) | Relative activity to acetophenone, OATA W58M (OATA W58M) |
| --- | --- | --- | --- | --- | --- | --- | --- | --- | --- |
| CCCCCC[C@H](C)N [(S)-2-aminooctane] | 255% | 99% | – | – | – | – | – | – | – |
| COc1ccc([C@H](C)N)cc1 [(S)-4-methoxy-α-methylbenzylamine] | 98% | 44% | – | – | – | – | – | – | – |
| Cc1ccc([C@H](C)N)cc1 [(S)-α,4-dimethylbenzylamine] | 78% | 45% | – | – | – | – | – | – | – |
| CC(=O)c1ccc(C)cc1 [Ketone 1d, 4-methylacetophenone] | – | – | 56% | 1,096% | 91% | 51% | 52% | 74% | 68% |
| COc1ccc(C(C)=O)cc1 [Ketone 1e, 4-methoxyacetophenone] | – | – | 30% | 4,017% | – | 34% | 30% | 38% | 42% |
| O=C1CCCc2ccccc21 [Ketone 1h, α-tetralone] | – | – | 19% | 243% | – | 0.7% | 12% | 16% | 17% |
| CCCC(C)=O [Ketone 1j, 2-pentanone] | – | – | 15% | – | – | 141% | 28% | 21% | 25% |
| CCCCC(C)=O [Ketone 1k, 2-hexanone] | – | – | 52% | – | 93% | 281% | 62% | 54% | 57% |
| CCCCCCC(C)=O [Ketone 1l, 2-octanone] | – | – | 122% | 13,757% | 91% | 209% | 140% | 73% | 81% |
| CC(=O)C(C)C [Ketone 1m, 3-methyl 2-butanone] | – | – | 21% | – | – | 78% | 29% | 26% | 29% |
| CC(=O)CC(C)C [Ketone 1n, 4-methyl-2-pentanone] | – | – | 46% | – | – | 61% | 35% | 41% | 38% |
| CCC(C)=O [Ketone 2-butanone, 2-butanone] | – | – | 16% | – | – | 78% | 17% | 20% | 25% |
| Cc1cccc(C)c1OCC(C)N (stereo not drawn) [Mexiletine, reference compound] | 284% | 197% | – | – | – | – | – | – | – |
| CC(C)=O [acetone] | – | – | 19% | – | – | – | 18% | 18% | 19% |
| CC(=O)CO [hydroxyacetone] | – | – | 31% | – | – | 23% | 32% | 42% | 44% |
| COCC(C)=O [methoxyacetone] | – | – | 135% | – | – | 424% | 152% | 166% | 159% |
| (S)-sec-butylamine | 266% | 66% | – | – | – | – | – | – | – |
| cyclpropyl methyl ketone [Ketone 1o] | – | – | 14% | – | – | 4% | 14% | 17% | 19% |
